From ChEMBL document CHEMBL5532643, “Design and synthesis of etrasimod derivatives as potent antibacterial agents against Gram-positive bacteria” (Eur J Med Chem, 2024)
Values after ≈ are worked out from the molar mass of the structure shown. Values joined by “and” are separate entries in the source; they are usually repeats but may differ in a detail not shown here. Equal entries are not always repeated.

Experiments:
Assay type in all cases: functional
Staphylococcus aureus [1] = assay: Antibiofilm activity against Staphylococcus aureus ATCC 25923 assessed as inhibition of biofilm biomass at 100 uM incubated for 18 to 20 hrs by crystal violet staining based assay; settings: time 18-20 hrs
Staphylococcus aureus [2] = assay: Antibiofilm activity against Staphylococcus aureus ATCC 25923 assessed as inhibition of biofilm viability at 100 uM incubated for 18 to 20 hrs by resazurin staining based assay; settings: time 18-20 hrs
Staphylococcus aureus [3] = assay: Antibacterial activity against Staphylococcus aureus ATCC 25923 assessed as inhibition of bacterial growth at 40 uM incubated for 18 to 24 hrs by broth microdilution assay relative to control; settings: time 18-24 hrs
Staphylococcus aureus [4] = assay: Antibacterial activity against Staphylococcus aureus ATCC 25923 assessed as reduction in bacterial growth incubated for 18 to 20 hrs by broth microdilution assay; settings: time 18-20 hrs
Staphylococcus aureus [5] = assay: Antibacterial activity against […] Staphylococcus aureus ATCC 43300 assessed as reduction in bacterial growth incubated for 18 to 20 hrs by broth microdilution assay; settings: time 18-20 hrs
[6] = tested on: Staphylococcus epidermidis; assay: Antibacterial activity against Staphylococcus epidermidis RP62A assessed as reduction in bacterial growth incubated for 18 to 20 hrs by broth microdilution assay; settings: time 18-20 hrs
Pseudomonas aeruginosa = assay: Antibacterial activity against Pseudomonas aeruginosa ATCC 15442 assessed as reduction in bacterial growth incubated for 18 to 20 hrs by broth microdilution assay; settings: time 18-20 hrs
Enterococcus faecalis [7] = assay: Antibacterial activity against vancomycin-resistant Enterococcus faecalis ATCC 51575 assessed as reduction in bacterial growth incubated for 18 to 20 hrs by broth microdilution assay; settings: time 18-20 hrs
Staphylococcus aureus [8] = assay: Antibacterial activity against Staphylococcus aureus ATCC 43300 assessed as reduction in bacterial growth incubated for 18 to 20 hrs by broth microdilution assay; settings: time 18-20 hrs
Enterococcus faecium = assay: Antibacterial activity against vancomycin-resistant Enterococcus faecium ATCC 700221 assessed as reduction in bacterial growth incubated for 18 to 20 hrs by broth microdilution assay; settings: time 18-20 hrs
Acinetobacter baumannii = assay: Antibacterial activity against Acinetobacter baumannii NCTC 13423 assessed as reduction in bacterial growth incubated for 18 to 20 hrs by broth microdilution assay; settings: time 18-20 hrs
Enterococcus faecalis [9] = assay: Antibacterial activity against Enterococcus faecalis ATCC 29212 assessed as reduction in bacterial growth incubated for 18 to 20 hrs by broth microdilution assay; settings: time 18-20 hrs
[10] = tested on: Staphylococcus epidermidis; assay: Antibacterial activity against […] Staphylococcus epidermidis RP62A assessed as reduction in bacterial growth incubated for 18 to 20 hrs by broth microdilution assay; settings: time 18-20 hrs

Compound	inhibition at 100 µM (Staphylococcus aureus [1])	inhibition at 100 µM (Staphylococcus aureus [2])	inhibition at 40 µM (Staphylococcus aureus [3])	MIC (Staphylococcus aureus [4])	MIC (Staphylococcus aureus [5])	MIC [6]	MIC (Pseudomonas aeruginosa)	MIC (Enterococcus faecalis [7])	MIC (Staphylococcus aureus [8])	MIC (Enterococcus faecium)	MIC (Acinetobacter baumannii)	MIC (Enterococcus faecalis [9])	MIC [10]
O=C(O)CCc1c[nH]c2ccc(OCc3ccc(C4CCCC4)c(C(F)(F)F)c3)cc12	> 90%	> 90%	≤ 90%	20 µM and 8.6 µg/mL	–	–	–	–	–	–	–	–	–
O=C(O)CC1CCc2c1[nH]c1ccc(OCc3ccc(N4CCOCC4)c(C(F)(F)F)c3)cc21 (configuration not stated)	> 90%	> 90%	≤ 90%	> 40 µM and > 19 µg/mL	–	–	–	–	–	–	–	–	–
FC(F)(F)c1cc(COc2ccc3[nH]ccc3c2)ccc1C1CCCC1	> 90%	> 90%	≤ 90%	> 40 µM and > 14.4 µg/mL	–	–	–	–	–	–	–	–	–
Cc1[nH]c2ccc(OCc3ccc(C4CCCC4)c(C(F)(F)F)c3)cc2c1CC(=O)O	> 90%	> 90%	≤ 90%	20 µM and 8.6 µg/mL	–	–	–	–	–	–	–	–	–
O=C(O)CC1CCc2c1[nH]c1ccc(OCc3ccc(C4CCCCC4)c(C(F)(F)F)c3)cc21 (configuration not stated)	> 90%	> 90%	≤ 90%	5 µM and 2.4 µg/mL	–	–	–	–	–	–	–	–	–
N#Cc1cc(COc2ccc3[nH]c4c(c3c2)CCC4CC(=O)O)ccc1C1CCCC1 (configuration not stated)	> 90%	> 90%	≤ 90%	40 µM and 16.6 µg/mL	–	–	–	–	–	–	–	–	–
O=C(O)CC1CCc2c1[nH]c1ccc(OCc3ccc(-c4cccs4)c(C(F)(F)F)c3)cc21 (configuration not stated)	> 90%	> 90%	≤ 90%	10 µM and 4.7 µg/mL	–	–	–	–	–	–	–	–	–
CCCCCCCCOc1ccc2[nH]c3c(c2c1)CCC3CC(=O)O (configuration not stated)	> 90%	> 90%	≤ 90%	40 µM and 13.7 µg/mL	–	–	–	–	–	–	–	–	–
O=C(O)CC1CCc2c1[nH]c1ccc(OCc3cccc(C(F)(F)F)c3)cc21 (configuration not stated)	> 90%	> 90%	≤ 90%	> 40 µM and > 15.6 µg/mL	–	–	–	–	–	–	–	–	–
O=C(O)c1ccc(OCc2ccc(C3CCCC3)c(C(F)(F)F)c2)cn1	> 90%	> 90%	≤ 90%	10 µM and 3.7 µg/mL	5 µM (≈ 1.83 µg/mL)	5 µM (≈ 1.83 µg/mL)	> 200 µM	20 µM (≈ 7.31 µg/mL)	5 µM (≈ 1.83 µg/mL)	20 µM (≈ 7.31 µg/mL)	> 200 µM	10 µM (≈ 3.65 µg/mL)	10 µM (≈ 3.65 µg/mL)
O=C(O)CC1CCc2c1[nH]c1ccc(OCc3ccc(C4CCCC4)cc3)cc21 (configuration not stated)	> 90%	> 90%	≤ 90%	20 µM and 7.8 µg/mL	–	–	–	–	–	–	–	–	–
O=C(O)CC1CCc2c1[nH]c1ccc(OCc3ccc(C4CCCCC4)c(OC(F)(F)F)c3)cc21 (configuration not stated)	> 90%	> 90%	≤ 90%	5 µM and 2.4 µg/mL	5 µM (≈ 2.44 µg/mL)	10 µM (≈ 4.88 µg/mL)	> 200 µM	5 µM (≈ 2.44 µg/mL)	5 µM (≈ 2.44 µg/mL)	5 µM (≈ 2.44 µg/mL)	> 200 µM	5 µM (≈ 2.44 µg/mL)	10 µM (≈ 4.88 µg/mL)
Cc1nc(-c2ccc(C(F)(F)F)cc2)sc1COc1ccc2[nH]c3c(c2c1)CCC3CC(=O)O (configuration not stated)	> 90%	> 90%	≤ 90%	20 µM and 9.7 µg/mL	–	–	–	–	–	–	–	–	–
O=C(O)CC1CCc2c1[nH]c1ccc(OCc3ccc(C4CCCC4)c(C(F)(F)F)c3)cc21 (racemic)	> 90%	> 90%	≤ 90%	5 µM and 2.3 µg/mL	–	–	–	–	–	–	–	–	–
NC(=O)CC1CCc2c1[nH]c1ccc(OCc3ccc(C4CCCC4)c(C(F)(F)F)c3)cc21 (configuration not stated)	> 90%	> 90%	≤ 90%	20 µM and 9.1 µg/mL	–	–	–	–	–	–	–	–	–
O=C(O)c1cc2cc(OCc3ccc(C4CCCC4)c(C(F)(F)F)c3)ccc2[nH]1	> 90%	> 90%	≤ 90%	5 µM and 2 µg/mL	5 µM (≈ 2.02 µg/mL)	5 µM (≈ 2.02 µg/mL)	> 200 µM	10 µM (≈ 4.03 µg/mL)	5 µM (≈ 2.02 µg/mL)	10 µM (≈ 4.03 µg/mL)	> 200 µM	10 µM (≈ 4.03 µg/mL)	2.5 µM (≈ 1.01 µg/mL)

Compound	inhibition at 100 µM (Staphylococcus aureus [1])	inhibition at 100 µM (Staphylococcus aureus [2])	inhibition at 40 µM (Staphylococcus aureus [3])	MIC (Staphylococcus aureus [4])	MIC (Staphylococcus aureus [5])	MIC [6]	MIC (Pseudomonas aeruginosa)	MIC (Enterococcus faecalis [7])	MIC (Staphylococcus aureus [8])	MIC (Enterococcus faecium)	MIC (Acinetobacter baumannii)	MIC (Enterococcus faecalis [9])	MIC [10]
O=C(O)Cc1ccc(OCc2ccc(C3CCCC3)c(C(F)(F)F)c2)cn1	> 90%	> 90%	≤ 90%	> 40 µM and > 15.2 µg/mL	–	–	–	–	–	–	–	–	–
CS(=O)(=O)NC(=O)CC1CCc2c1[nH]c1ccc(OCc3ccc(C4CCCC4)c(C(F)(F)F)c3)cc21 (configuration not stated)	> 90%	> 90%	≤ 90%	5 µM and 2.7 µg/mL	5 µM (≈ 2.67 µg/mL)	10 µM (≈ 5.35 µg/mL)	> 200 µM	5 µM (≈ 2.67 µg/mL)	5 µM (≈ 2.67 µg/mL)	10 µM (≈ 5.35 µg/mL)	> 200 µM	5 µM (≈ 2.67 µg/mL)	10 µM (≈ 5.35 µg/mL)
O=C(O)CC1CCCc2c1[nH]c1ccc(OCc3ccc(C4CCCC4)c(C(F)(F)F)c3)cc21 (configuration not stated)	> 90%	> 90%	≤ 90%	5 µM and 2.4 µg/mL	5 µM (≈ 2.36 µg/mL)	10 µM (≈ 4.72 µg/mL)	> 200 µM	10 µM (≈ 4.72 µg/mL)	5 µM (≈ 2.36 µg/mL)	5 µM (≈ 2.36 µg/mL)	> 200 µM	5 µM (≈ 2.36 µg/mL)	5 µM (≈ 2.36 µg/mL)
O=C(O)Cc1c[nH]c2ccc(OCc3ccc(C4CCCC4)c(C(F)(F)F)c3)cc12	> 90%	> 90%	≤ 90%	20 µM and 8.3 µg/mL	–	–	–	–	–	–	–	–	–
O=C(O)CC1CCc2c1[nH]c1ccc(OCc3ccc(-c4ccc(Cl)s4)c(C(F)(F)F)c3)cc21 (configuration not stated)	> 90%	> 90%	≤ 90%	5 µM and 2.5 µg/mL	–	–	–	–	–	–	–	–	–
O=C(O)CC1CCc2c1[nH]c1ccc(OCc3ccc(C4CCCC4)c(OC(F)(F)F)c3)cc21 (configuration not stated)	> 90%	> 90%	≤ 90%	5 µM and 2.4 µg/mL	–	–	–	–	–	–	–	–	–
O=C(O)CC1CCc2c1[nH]c1ccc(OCc3noc(-c4ccc(C(F)(F)F)cc4)n3)cc21 (configuration not stated)	> 90%	> 90%	≤ 90%	> 40 µM and > 18.3 µg/mL	–	–	–	–	–	–	–	–	–
CC(=O)NC[C@H]1CN(c2ccc(N3CCOCC3)c(F)c2)C(=O)O1 [LINEZOLID]	–	–	–	–	–	–	–	5 µM (≈ 1.69 µg/mL)	–	5 µM (≈ 1.69 µg/mL)	–	5 µM (≈ 1.69 µg/mL)	–
CCOC(=O)CC1CCc2c1[nH]c1ccc(OCc3ccc(C4CCCC4)c(C(F)(F)F)c3)cc21 (configuration not stated)	> 90%	> 90%	≤ 90%	> 40 µM and > 19.4 µg/mL	–	–	–	–	–	–	–	–	–
O=C(O)Cc1c[nH]c2ccc(OCc3ccc(C4CCCCC4)c(C(F)(F)F)c3)cc12	> 90%	> 90%	≤ 90%	10 µM and 4.3 µg/mL	10 µM (≈ 4.31 µg/mL)	10 µM (≈ 4.31 µg/mL)	> 200 µM	20 µM (≈ 8.63 µg/mL)	10 µM (≈ 4.31 µg/mL)	20 µM (≈ 8.63 µg/mL)	> 200 µM	20 µM (≈ 8.63 µg/mL)	10 µM (≈ 4.31 µg/mL)
O=C(O)CC1CCc2c1[nH]c1ccc(OCc3ccc(OCC4CCCC4)c(C(F)(F)F)c3)cc21 (configuration not stated)	> 90%	> 90%	≤ 90%	10 µM and 4.9 µg/mL	–	–	–	–	–	–	–	–	–
CCCCc1ccc(COc2ccc3[nH]c4c(c3c2)CCC4CC(=O)O)cc1C(F)(F)F (configuration not stated)	> 90%	> 90%	≤ 90%	10 µM and 4.5 µg/mL	–	–	–	–	–	–	–	–	–
CC(C)Cc1ccc(COc2ccc3[nH]c4c(c3c2)CCC4CC(=O)O)cc1C(F)(F)F (configuration not stated)	> 90%	> 90%	≤ 90%	10 µM and 4.5 µg/mL	–	–	–	–	–	–	–	–	–
O=C(O)Cn1ccc2cc(OCc3ccc(C4CCCC4)c(C(F)(F)F)c3)ccc21	> 90%	> 90%	≤ 90%	20 µM and 8.3 µg/mL	–	–	–	–	–	–	–	–	–
O=C(O)CC1CCc2c1[nH]c1ccc(OCc3ccc(C4CCCC4)c(F)c3)cc21 (configuration not stated)	> 90%	> 90%	≤ 90%	10 µM and 4.1 µg/mL	–	–	–	–	–	–	–	–	–
